Nine molecules from publication PMC9494209 (RSC Advances, 2022) can be followed below.

The subject of one assay is SARS-CoV-2. It is filed as cell-based. The settings on record: for SI (selectivity index): IC50 Vero cell cytotoxicity divided by EC50 of the antiviral assay; for EC50: read-out: Antiviral assay (qPCR) EC50, Vero E6 cells, five concentrations, ± SE.
The target of the next assay is SARS-CoV-2 M^pro (Severe acute respiratory syndrome coronavirus 2, UniProt P0DTD1). Briefly: biochemical. The class given is biochemical. The conditions noted are these: ± SE, triplicate readings; for IC50: IC50 against SARS-CoV-2 M^pro.

By IC50 is commonly meant the concentration at which inhibition is half-maximal. `O=C(Nc1ccccc1F)c1cc2c(=O)n3ccccc3nc2n1Cc1ccccc1` [Compound 21, 1-Benzyl-N-(2-fluorophenyl)-4-oxo-1,4-dihydropyrido[1,2-a]pyrrolo[2,3-d]pyrimidine-2-carboxamide]: the “SI (selectivity index)” value with SARS-CoV-2 amounted to 3544. The IC50 on SARS-CoV-2 M^pro was 25.4 ± 2.4 µM.

What is called EC50 is the midpoint of the concentration-response curve. `Cn1c(C(=O)Nc2ccc(Cl)cc2)cc2c(=O)n3ccccc3nc21` [Compound 22, N-(4-Chlorophenyl)-1-methyl-4-oxo-1,4-dihydropyrido[1,2-a]pyrrolo[2,3-d]pyrimidine-2-carboxamide]: in the assay on SARS-CoV-2, the “SI (selectivity index)” value was determined as 1766 and the EC50 was 0.109 ± 0.0111 µM. Further, the midpoint of inhibition on SARS-CoV-2 M^pro, the IC50, lay at 236 ± 4.29 µM.

In the case of `CCc1ccc(NC(=O)c2cc3c(=O)n4ccccc4nc3n2C)cc1` [Compound 24, N-(4-Ethylphenyl)-1-methyl-4-oxo-1,4-dihydropyrido[1,2-a]pyrrolo[2,3-d]pyrimidine-2-carboxamide], the “SI (selectivity index)” value in the assay on SARS-CoV-2 is given as 283.3. This molecule also gave an IC50 on SARS-CoV-2 M^pro of 82.2 ± 15 µM.

In the case of `CC(=O)c1cccc(NC(=O)c2cc3c(=O)n4ccccc4nc3n2C)c1` [Compound 25, N-(3-Acetylphenyl)-1-methyl-4-oxo-1,4-dihydropyrido[1,2-a]pyrrolo[2,3-d]pyrimidine-2-carboxamide], the “SI (selectivity index)” value with SARS-CoV-2 came to 1135. For the same molecule, at SARS-CoV-2 M^pro, the IC50 stood at 5.42 µM and the “IC50 against SARS-CoV-2 M^pro” value is listed as “low micromolar concentrations”.

As for `Cc1cccn2c(=O)c3cc(C(=O)Nc4ccc(N(C)C)cc4)n(C)c3nc12` [Compound 26, N-(4-(Dimethylamino)phenyl)-1,9-dimethyl-4-oxo-1,4-dihydropyrido[1,2-a]pyrrolo[2,3-d]-pyrimidine-2-carboxamide], the “Antiviral assay (qPCR) Inhibition %” value in the assay on SARS-CoV-2 (10 µM) came to 94.05%. For the same molecule, in the assay on SARS-CoV-2, the “SI (selectivity index)” value was found to be 2323. The half-inhibitory concentration (IC50) against SARS-CoV-2 M^pro is 407.5 ± 3.44 µM.

As for `Cc1ccc(NC(=O)c2cc3c(=O)n4cccc(C)c4nc3n2C)cc1Cl` [Compound 27, N-(3-Chloro-4-methylphenyl)-1,9-dimethyl-4-oxo-1,4-dihydropyrido[1,2-a]pyrrolo[2,3-d]-pyrimidine-2-carboxamide], the “SI (selectivity index)” value in the assay with SARS-CoV-2 came to 622.2. For the same molecule, on SARS-CoV-2 M^pro, the midpoint of inhibition, the IC50, lay at 165 ± 16.7 µM.

On to `Cc1cc(NC(=O)c2cc3c(=O)n4cccc(C)c4nc3n2C)ccc1Br` [Compound 28, N-(4-Bromo-3-methylphenyl)-1,9-dimethyl-4-oxo-1,4-dihydropyrido[1,2-a]pyrrolo[2,3-d]-pyrimidine-2-carboxamide], for which, in the assay on SARS-CoV-2, the “SI (selectivity index)” value was 1278. The molecule further returned a half-inhibitory concentration (IC50) against SARS-CoV-2 M^pro of 46 ± 8.62 µM.

For `Cn1c(C(=O)Nc2ccc3c(c2)OCCO3)cc2c(=O)n3ccccc3nc21` [Compound 29, N-(2,3-Dihydrobenzo[b][1,4]dioxin-6-yl)-1-methyl-4-oxo-1,4-dihydropyrido[1,2-a]pyrrolo-[2,3-d]pyrimidine-2-carboxamide], in the assay on SARS-CoV-2, the “SI (selectivity index)” value is on record as 2909 and the EC50 amounted to 0.0519 ± 0.00512 µM. For the same molecule, on SARS-CoV-2 M^pro, the IC50 is 3.22 ± 2.83 µM and the “IC50 against SARS-CoV-2 M^pro” value is recorded as “low micromolar concentrations”.

For `CCC(CC)COC(=O)[C@H](C)N[P@](=O)(OC[C@H]1O[C@@](C#N)(c2ccc3c(N)ncnn23)[C@H](O)[C@@H]1O)Oc1ccccc1` [Remdesivir, reference compound], in the assay on SARS-CoV-2, the “SI (selectivity index)” value was determined as 7195.
